# Biological target: T1, P-glycoprotein (P-gp) (Homo sapiens, UniProt P08183)
# T1 construct: gene ABCB1
# Assay: Pgp-Glo luminescent P-gp ATPase assay; inhibition of paclitaxel-stimulated ATPase at […]
# Format: biochemical
# T1 sequence (P08183 whole entry): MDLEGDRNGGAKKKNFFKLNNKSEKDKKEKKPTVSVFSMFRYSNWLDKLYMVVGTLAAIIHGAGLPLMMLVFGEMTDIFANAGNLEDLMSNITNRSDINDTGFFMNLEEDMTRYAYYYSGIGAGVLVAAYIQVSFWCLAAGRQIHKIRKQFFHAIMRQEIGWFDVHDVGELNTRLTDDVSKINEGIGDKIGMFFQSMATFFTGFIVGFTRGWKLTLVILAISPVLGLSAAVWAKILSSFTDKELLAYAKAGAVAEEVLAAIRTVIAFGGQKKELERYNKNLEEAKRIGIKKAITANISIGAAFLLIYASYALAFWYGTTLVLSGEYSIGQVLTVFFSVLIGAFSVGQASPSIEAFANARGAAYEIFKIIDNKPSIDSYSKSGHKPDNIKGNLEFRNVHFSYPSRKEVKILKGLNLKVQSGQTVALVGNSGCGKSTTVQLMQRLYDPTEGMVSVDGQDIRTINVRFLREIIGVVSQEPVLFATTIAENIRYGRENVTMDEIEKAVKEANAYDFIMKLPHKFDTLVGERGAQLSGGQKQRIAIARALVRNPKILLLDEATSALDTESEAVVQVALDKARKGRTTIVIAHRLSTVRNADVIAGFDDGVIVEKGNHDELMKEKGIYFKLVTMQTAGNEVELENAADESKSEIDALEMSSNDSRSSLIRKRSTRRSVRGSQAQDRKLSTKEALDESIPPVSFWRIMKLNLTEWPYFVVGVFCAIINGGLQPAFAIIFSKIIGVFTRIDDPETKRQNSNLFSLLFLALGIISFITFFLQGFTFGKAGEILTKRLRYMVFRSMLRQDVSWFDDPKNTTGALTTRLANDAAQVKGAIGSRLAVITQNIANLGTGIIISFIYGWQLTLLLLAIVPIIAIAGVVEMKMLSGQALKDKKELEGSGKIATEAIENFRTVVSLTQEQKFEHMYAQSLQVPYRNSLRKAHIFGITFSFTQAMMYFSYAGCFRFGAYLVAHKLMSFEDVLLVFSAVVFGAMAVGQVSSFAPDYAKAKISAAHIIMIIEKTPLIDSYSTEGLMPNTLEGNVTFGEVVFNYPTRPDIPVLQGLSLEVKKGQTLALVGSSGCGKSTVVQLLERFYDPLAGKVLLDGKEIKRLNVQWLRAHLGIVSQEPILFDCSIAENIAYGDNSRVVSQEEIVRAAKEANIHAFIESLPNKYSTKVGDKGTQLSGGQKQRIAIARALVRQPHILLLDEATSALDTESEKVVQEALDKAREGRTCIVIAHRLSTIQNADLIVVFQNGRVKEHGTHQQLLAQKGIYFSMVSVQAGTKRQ
compound,measurement,value
C/C1=C\[C@@H]2[C@H](CC[C@@]3(C)O[C@@H]3[C@H]3[C@@H](O)[C@@H](C)C[C@]3(OC(=O)/C=C/c3ccccc3)C1=O)C2(C)C [EM-E-11-4],Pgp-Glo luminescent P-gp ATPase assay; inhibition of paclitaxel-stimulated ATPas,These results suggest that EM-E-11-4 hinders P-gp ATPase activity
